Data: US8002883B2, “Amidoalkylamine-comprising azole compositions for protecting industrial materials” (LANXESS Deutschland GmbH, priority 2009, dated 2011)

Columns and labels:
Poria placenta = experiment: Agar hyphae growth test, minimum inhibitory concentration (MIC) and Kull synergism; assay type: cell-based; settings: malt extract/peptone nutrient agar, 26° C., radial hyphae growth suppressed completely; read-out: MIC against Poria placenta
Description: (§1) The synergism was determined by the method described by Kull et al. (F. C. Kull, P. C. Eismann, H. D. Sylvestrowicz, R. L. Mayer, Applied Microbiology 1961, 9, 538-541). Here, the following relations apply:
(§2) [formula] X=1 means additivity X>1 means antagonism X<1 means synergism Qa=concentration of substance A which is the MIC Qb=concentration of substance B which is the MIC QA=concentration of substance A in the concentration of A/B which suppresses the microbial growth QB=concentration of substance B in the concentration of A/B which suppresses the microbial growth Results:
(§3) Mycelium pieces were punched out of a colony of the wood-destroying fungus Poria placenta and incubated at 26° C. on a malt extract/peptone-containing nutrient agar. The hyphae growth with and without added active compound and/or additive was compared. The minimum inhibitory concentration (MIC) stated is the concentration at which the radial hyphae growth is suppressed completely.

Gloeophyllum trabeum = experiment: as above; assay type: cell-based; settings: 168 h, malt extract/peptone nutrient agar, 26° C., radial hyphae growth suppressed completely, about 1 week, read-out: MIC against Gloeophyllum trabeum
Description: as §3, with “Gloeophyllum trabeum” for “Poria placenta”, “amidoalkylamine” for “additive”, “completely (incubation time: about 1 week depending on the fungal growth of the comparative sample without active compound).” for “completely.”
as §1
as §2, with “Results: […]” for “Results:”

Row | Structure (SMILES) | MIC (Poria placenta) [µg/mL] | MIC (Gloeophyllum trabeum) [µg/mL]
1 | CCCC1COC(Cn2cncn2)(c2ccc(Cl)cc2Cl)O1 (stereo not drawn) [propiconazole] | 0.5 | 
2 | CC(C)(C)C(O)(CCc1ccc(Cl)cc1)Cn1cncn1 (stereo not drawn) [tebuconazole] |  | 0.5
3 | CC(C)(C)C(=O)C(Oc1ccc(Cl)cc1)n1cncn1 (stereo not drawn) [triadimefon] | 3 | 
